Measurements as given in patent US11939241B2, “Stable percarboxylic acid compositions and uses thereof” (Ecolab USA Inc., priority 2012, dated 2024).

Test: Quantitation of peroxide gases of decomposition (U-tube manometer)
Type: physicochemical
Description: The volume of peroxides' gases of decomposition was measured using a water filled U-tube fitted with a minimal volume tubing connected to a non-coring syringe needle. The manometer made of pyrex glass was filled partially with deionized water colored with FD&C blue dye #1 and 1,000 ppm of non-ionic surfactant. The dye allows for increased visibility of the water columns and the surfactant lowers the surface tension allowing for unbroken water columns. The manometer was also fitted with a metric ruler to allow the convenient determination of the column heights difference. Given that 1 atmosphere of pressure corresponds with […] of water column height and the limit of resolution on the column and ruler combination is about 1 mm, the signal/noise ratio approximates […].
Procedure. Four head space vials were double rinsed with the sample solution before adding 5 mL of sample solution (via Repeat Pipettor) and sealing the vials with a silicone backed PTFE septum with aluminum cap. Immediately after sealing the vials the temperature and barometric pressure were recorded. A set of water blank replicates of the same volume were also included. The sealed vials were stored for 24-48 hours at ambient temperatures inside a dark cabinet to allow for optimal gas pressure generation.
Calculations. By calibration of the U-tube water column displacement using a precision gas syringe, the water column height to gas volume ratio was calculated. Using the assumption of peroxide decay to molecular oxygen (ignoring CO2 or CO gases etc.), these values were converted to gas volumes and the loss of available oxygen in the sample was thereby calculated using the formulae below: 2 moles of RCO3H→2 moles of RCO2H+1 mole of O2(22.4 L of O2 at standard temperature and pressure) And 2 moles of H2O2→2 moles of H2O+1 mole of O2(22.4 L of O2 at standard temperature and pressure)

Hydrogen peroxide [F]
Net O2 Lost (5 mL sample, sealed vial, 24-48 hours, ambient temperature): 0.017 g
Net Gas Gen. (5 mL sample, sealed vial, 24-48 hours, ambient temperature, dark): 11.9 mL
Rel. Loss O2 (24-48 hours, ambient temperature): 0.02% w/w, %
Initial H2O2 (initial): 50.00 w/w, %
Initial POAA (initial): 0.00 w/w, %
Initial O2 (initial available oxygen): 23.53 w/w, %
